Data reported in patent US20240269304A1, “BCL-XL INHIBITOR ANTIBODY-DRUG CONJUGATES AND METHODS OF USE THEREOF” (Novartis AG, priority 2020, published 2024).

Key:
ncih524 = test: In vitro ADC activity with combination partners, CellTiter-Glo 5 days, ncih524 (Example 13); format: cell-based; details: single agent
Protocol: (§1) Antibody drug conjugates (ADCs) targeting IgG, B7H3, CD56, DLK1, DLL3, EpCAM, and SEZ6 were tested against cancer cell lines obtained from ATCC (American Type Culture Collection) or from other commercial cell line vendors (cor1279, ncih1436, ncih146, ncih211, ncih524). The cells were cultured in media that is optimal for their growth at 5% CO2, 37° C. in a tissue culture incubator. Prior to seeding for the proliferation assay, the cells were split at least 2 days before the assay to ensure optimal growth density. On the day of seeding, cells were lifted off tissue culture flasks using 0.25% trypsin. Cell viability and cell density were determined using a cell counter (Vi-Cell XR Cell Viability Analyzer, Beckman Coulter). Cells with higher than 85% viability were seeded in white clear bottom 384-well plates (Greiner cat #781098) at a density of 1000 cells per well in 50 μL of standard growth media. Plates were incubated at 37° C. overnight in a tissue culture incubator.
(§2) The ADCs were prepared in standard phosphate buffered solution to desired concentrations. A series of 10 dilutions were made for each ADC. The prepared drug treatments were then added to the cells resulting in final concentrations of 300 nM to 0.015 nM. Combination partners (Venetoclax and Topotecan) were added at fixed concentrations. Acoustic transfer devices (Echo525, Echo550, Beckman Coulter) were used to add the ADCs or combination partners to the cells. Each treatment was tested in triplicate assay plates. Plates were incubated at 37° C. overnight or for 5 days in a tissue culture incubator. The ability of the ADCs to inhibit cell proliferation and survival was assessed using the Promega CellTiter-Glo® proliferation assay. Plates were incubated at room temperature for 20 minutes to stabilize luminescent signals prior to reading using a multimode plate reader (Pherastar, BMG). Luminescent counts of untreated cells were taken the day after seeding (Day 0 readings), and after 5 days of treatment (Day 5 readings). The Day 5 readings of the untreated cells were compared to the Day 0 readings. Assays with at least one cell doubling during the incubation period were considered valid. To evaluate the effect of the drug treatments, luminescent counts from wells containing untreated cells (100% viability) were used to normalize treated samples. The concentrations of treatment required to inhibit 50% of cell growth or survival ([…]) were calculated using a four parameter logistic regression equation.

ncih146 = test: In vitro ADC activity with combination partners, CellTiter-Glo 5 days, ncih146 (Example 13); format: cell-based; details: single agent
Protocol: as §1, §2

ncih1436 = test: In vitro ADC activity with combination partners, CellTiter-Glo 5 days, ncih1436 (Example 13); format: cell-based; details: single agent
Protocol: as §1, §2

corl279 = test: In vitro ADC activity with combination partners (Venetoclax, Topotecan), CellTiter-Glo 5 days, corl279 (Example 13); format: cell-based; details: single agent
Protocol: as §1, §2

ncih211 = test: In vitro ADC activity with combination partners, CellTiter-Glo 5 days, ncih211 (Example 13); format: cell-based; details: single agent
Protocol: as §1, §2

[1] = tested on: H1650 human non-small cell lung carcinoma (NSCLC) model; test: In vivo efficacy of EGFR2-Bcl-xL inhibitor ADC in combination with docetaxel, H1650 xenografts (Example 15); set-up: species or system female SCID mice; details: Vehicle iv + docetaxel 7.5 mg/kg qdx1 iv 24 h later
Protocol: H1650 cells were cultured at 37° C. in an atmosphere of 5% CO2 in air in RPMI1640 (BioConcept Ltd. Amimed, #1-41F01-1) supplemented with 10% FCS (BioConcept Ltd. Amimed, #2-01F30-1), 2 mM L-glutamine (BioConcept Ltd. Amimed, #5-10K00-H) and 1 mM sodium pyruvate (BioConcept Ltd. Amimed, #5-60F00-H), 10 mM HEPES (Gibco #11560496) and D-glucose 1.25g/500 mL medium (Gibco, #A24940-01). To establish H1650 xenografts, cells were harvested and re-suspended in HBSS (Gibco, #14175)/Matrigel (Corning #354234) (1:1 v/v) before injecting 100 μL containing 5×10^6 cells subcutaneously in the flanks of female SCID mice (Taconic, Europe). Tumor growth was monitored regularly post cell inoculation and animals were randomized into treatment groups (n=6) with a mean tumor volume of about 150 mm^3. The ADCs were administered intravenously (i.v.) once at the start of treatment at 30 mg/kg in combination with 7.5 mg/kg docetaxel (Zentiva: 1 ml/20 mg) which was administered i.v. once 24 h after the ADCs. Doses were adjusted to individual mouse body weights. The i.v. dose volume was 10 ml/kg and each ADC was dissolved in 0.9% (w/v) NaCl in water and the docetaxel stock solution was diluted to appropriate concentration with 5% (w/v) sterile glucose solution prior to administration.
Tumor volume data on day 21 and 28 post treatment initiation were analyzed for statistical difference relative to vehicle control group and EGFR-Bcl-xLi (L109A-P1) ADC, using one way ANOVA post hoc Tukey's multiple comparisons test (Indigo Software). Results are presented as mean±SEM.
As a measure of efficacy the %T/C value was calculated on day 21 according to:
(Δtumor volume treated/Δtumor volume control)*100 Tumor regression was calculated according to:
−(Δtumor volume treated/tumor volume treated at start)*100
Where Δtumor volumes represent the mean tumor volume on the evaluation day minus the mean tumor volume at the start of the experiment.

SMILES: CC[C@@]1(O)C(=O)OCc2c1cc1n(c2=O)Cc2cc3c(CN(C)C)c(O)ccc3nc2-1 [Topotecan, topotecan]
- GI50 (ncih524; Homo sapiens, NCI-H524, 120 h): 0.00827 µM
- GI Amax ncih524 (ncih524): −83.85
- GI50 (ncih146; Homo sapiens, NCI-H146, 120 h): 0.00304 µM
- GI Amax ncih146 (ncih146): −91.77
- GI50 (ncih1436; Homo sapiens, NCI-H1436, 120 h): 0.515 µM
- GI Amax ncih1436 (ncih1436): −23.22
- GI50 (corl279; Homo sapiens, COR-L279, 120 h): 0.0152 µM
- GI Amax corl279 (corl279): −95.95
- GI50 (ncih211; Homo sapiens, NCI-H211, 120 h): 0.0125 µM
- GI Amax ncih211 (ncih211): −89.36

SMILES: CC1(C)CCC(CN2CCN(c3ccc(C(=O)NS(=O)(=O)c4ccc(NCC5CCOCC5)c([N+](=O)[O-])c4)c(Oc4cnc5[nH]ccc5c4)c3)CC2)=C(c2ccc(Cl)cc2)C1 [Venetoclax, venetoclax]
- GI50 (ncih524): > 10 µM
- GI Amax ncih524 (ncih524): 105.21
- GI50 (ncih146): 0.789 µM
- GI Amax ncih146 (ncih146): −16.83
- GI50 (ncih1436): 4.92 µM
- GI Amax ncih1436 (ncih1436): 13
- GI50 (corl279): > 10 µM
- GI Amax corl279 (corl279): 98.71
- GI50 (ncih211): 3.92 µM
- GI Amax ncih211 (ncih211): 30.85

SMILES: CC(=O)O[C@@]12CO[C@@H]1C[C@H](O)[C@@]1(C)C(=O)[C@H](O)C3=C(C)[C@@H](OC(=O)[C@H](O)[C@@H](NC(=O)OC(C)(C)C)c4ccccc4)C[C@@](O)([C@@H](OC(=O)c4ccccc4)[C@H]21)C3(C)C [docetaxel]
- Response on day 21 T/C (%) ([1]; day 21): 51%
- ΔTumor volume (mm^3) D21 ([1]; day 21, mean): 396.59 mm^3
- Maximum regression (day) ([1]; maximum on D7): −1
- Significance On D21 vs Isotype-DANAPA-L109A-P1-ADC group ([1]; vs IgG CysMab DANAPA-L109A-P1 ADC + docetaxel, printed with (growth)): P < 0.05 (growth)
